The source made the active and inactive calls.
Experiments:
[1] = growth suppression of beta-catenin-knockout colon cells, dose response, cell-based, HCT116, human colon tumor (AID 1045); format: functional;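 further: HCT116 colon tumor cells with beta catenin knocked out; cells exposed to compound for 60 hours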
Beta Lactamase = Beta Lactamase (Pseudomonas aeruginosa, UniProt Q932Y6); experiment: beta-lactamase reporter inhibitor potency, dose response, artefact control for NOD2-RIPK2 interaction inhibitor project, BLA reporter cells, FRET fluorescence (AID 651552); format: functional, cell-based
Chain of Beta Lactamase (Q932Y6 whole entry): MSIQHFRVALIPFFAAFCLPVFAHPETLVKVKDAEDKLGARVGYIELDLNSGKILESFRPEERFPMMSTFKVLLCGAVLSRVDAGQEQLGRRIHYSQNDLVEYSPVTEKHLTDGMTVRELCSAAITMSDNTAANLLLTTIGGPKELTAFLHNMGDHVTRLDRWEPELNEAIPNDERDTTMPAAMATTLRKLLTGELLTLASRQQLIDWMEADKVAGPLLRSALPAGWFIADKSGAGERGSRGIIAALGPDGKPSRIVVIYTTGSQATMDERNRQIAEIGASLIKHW

H4 = experiment: Luminescence Cell-Based Dose Response HTS to Identify Activators of 5'UTR Stem-Loop Driven Prion Protein mRNA Translation in H4 Neuroglioblastoma Cells. [Related pubchem assays: 1829 (Project Summary), 1814 (Primary HTS)]; format: functional; settings: Homo sapiens
[2] = A549 cell cytotoxicity, dose response, cytotoxicity control, plate reader, cherry-pick, antagonist series (AID 743412); format: functional, cell-based
[3] = growth suppression of PTEN-null colon cells, dose response, cell-based, HCT116 PTEN knockout (AID 1047); format: functional;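 further: HCT116 colon tumor cells with PTEN knocked out; cells exposed to compound for 60 hours before readout; potency for loss of cell viability measured by luminescence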
[4] = MC4R antagonists, dose response, counter-screen for LGR2 antagonist project, cell-based, plate reader, cherry pick (AID 743444); format: functional;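 further: transfected HEK 293 cells stimulated with alpha-MSH peptide; potency of inhibitors of the alpha-MSH evoked signal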
Paired box protein Pax-8 = Paired box protein Pax-8 (Homo sapiens, UniProt Q06710); experiment: inhibitors of PAX8-driven TPO luciferase reporter, dose response, RMG-I cells, cherry-pick (AID 687027); format: functional, cell-based;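 further: luciferase reporter driven by Pax8 target thyroperoxidase promoter measured by SteadyGlo luminescence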
Chain of Paired box protein Pax-8 (Q06710 whole entry): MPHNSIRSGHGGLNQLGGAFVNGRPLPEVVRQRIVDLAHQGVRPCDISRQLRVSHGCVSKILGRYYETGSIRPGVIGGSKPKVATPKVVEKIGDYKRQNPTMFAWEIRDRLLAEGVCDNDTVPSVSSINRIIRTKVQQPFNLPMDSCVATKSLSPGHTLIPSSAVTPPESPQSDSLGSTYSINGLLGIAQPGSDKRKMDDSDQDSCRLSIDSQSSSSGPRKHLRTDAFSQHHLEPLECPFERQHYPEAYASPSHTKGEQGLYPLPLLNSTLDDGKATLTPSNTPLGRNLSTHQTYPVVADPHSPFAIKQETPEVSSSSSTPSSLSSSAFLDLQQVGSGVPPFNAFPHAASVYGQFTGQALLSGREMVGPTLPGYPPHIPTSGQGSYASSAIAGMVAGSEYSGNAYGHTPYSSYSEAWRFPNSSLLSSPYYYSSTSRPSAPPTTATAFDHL

INS1 = experiment: beta cell apoptosis inhibitors, cytokine rescue, dose response, luminescence, retest (AID 449756); format: functional, cell-based; settings: Rattus norvegicus;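 further: cell death triggered by IL-1 beta plus TNF-alpha plus IFN-gamma mixture; protective hits raise ATP signal compared with cytokine alone wells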
[5] = HEK293 cell cytotoxicity, dose response, cytotoxicity control, plate reader, cherry-picked samples (AID 743446); format: functional, cell-based
[6] = biological target: Photoreceptor-specific nuclear receptor (Homo sapiens, UniProt Q9Y5X4); format: functional, cell-based;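 further: CHO-S cells with Gal4-NCOR and VP16-NR2E3 two-hybrid luciferase reporter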
Chain of Photoreceptor-specific nuclear receptor (Q9Y5X4 whole entry, the tested form may be a part): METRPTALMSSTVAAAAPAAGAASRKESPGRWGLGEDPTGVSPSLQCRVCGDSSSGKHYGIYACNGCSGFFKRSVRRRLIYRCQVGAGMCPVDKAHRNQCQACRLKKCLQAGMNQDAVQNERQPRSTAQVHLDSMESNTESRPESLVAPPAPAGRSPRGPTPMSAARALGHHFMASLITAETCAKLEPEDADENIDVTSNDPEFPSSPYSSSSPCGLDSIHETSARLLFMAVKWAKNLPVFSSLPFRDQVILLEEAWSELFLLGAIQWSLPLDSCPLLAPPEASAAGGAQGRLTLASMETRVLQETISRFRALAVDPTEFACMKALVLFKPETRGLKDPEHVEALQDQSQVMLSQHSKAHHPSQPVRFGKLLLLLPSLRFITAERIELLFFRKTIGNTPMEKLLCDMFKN

[7] = Fluorescence-based cell-based high throughput dose response assay for inhibitors of the interaction of nucleotide-binding oligomerization domain containing 2 (NOD2) and the receptor-interacting serine-threonine kinase 2 (RIPK2).; format: functional; settings: Homo sapiens
[8] = inhibitors of PGC1a acetylation in cells, dose response, cell-based, cherry-picked samples (AID 720514); format: functional;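 further: potency may reflect raised or lowered acetylation signal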
[9] = biological target: T1, Sphingosine 1-phosphate receptor 4 (Homo sapiens, UniProt O95977); experiment: Late stage fluorescence dose response cell-based screening assay for antagonists of the Sphingosine 1-Phosphate Receptor 4 (S1P4). [Related pubchem assays: 1524 (Confirmation screen (S1P4 antagonists).), 1510 (Primary screen (S1P4 antagonists).), 1853 (Summary AID (S1P4 antagonists).), 1692 (Dose response screen (S1P4 antagonists).)]; format: functional
T1 sequence (O95977 whole entry): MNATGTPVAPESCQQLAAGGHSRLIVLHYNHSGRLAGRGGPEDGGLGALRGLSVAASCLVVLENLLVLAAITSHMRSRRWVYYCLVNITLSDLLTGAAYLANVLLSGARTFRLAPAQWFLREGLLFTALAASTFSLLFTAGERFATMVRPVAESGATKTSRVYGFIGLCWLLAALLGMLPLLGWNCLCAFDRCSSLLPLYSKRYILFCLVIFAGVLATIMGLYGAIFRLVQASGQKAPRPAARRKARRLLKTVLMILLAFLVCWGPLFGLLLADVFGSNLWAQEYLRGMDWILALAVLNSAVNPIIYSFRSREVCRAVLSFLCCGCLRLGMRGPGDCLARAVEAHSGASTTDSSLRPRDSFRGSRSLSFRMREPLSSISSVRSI

[10] = Luminescence Cell-Based Dose Confirmation HTS to Identify Activators of 5'UTR Stem-Loop Driven Alpha-Synuclein mRNA Translation in H4 Neuroglioblastoma Cells. [Related pubchem assays: 1829 (Project Summary), 1814 (Primary HTS)]; format: functional
[11] = biological target: Sphingosine 1-phosphate receptor 1 (Homo sapiens, UniProt P21453); format: functional;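 further: Tango beta-arrestin reporter U2OS cells stimulated with S1P near its EC80; inhibitor potency meaning antagonism of receptor activation by the natural agonist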
Chain of Sphingosine 1-phosphate receptor 1 (P21453 whole entry): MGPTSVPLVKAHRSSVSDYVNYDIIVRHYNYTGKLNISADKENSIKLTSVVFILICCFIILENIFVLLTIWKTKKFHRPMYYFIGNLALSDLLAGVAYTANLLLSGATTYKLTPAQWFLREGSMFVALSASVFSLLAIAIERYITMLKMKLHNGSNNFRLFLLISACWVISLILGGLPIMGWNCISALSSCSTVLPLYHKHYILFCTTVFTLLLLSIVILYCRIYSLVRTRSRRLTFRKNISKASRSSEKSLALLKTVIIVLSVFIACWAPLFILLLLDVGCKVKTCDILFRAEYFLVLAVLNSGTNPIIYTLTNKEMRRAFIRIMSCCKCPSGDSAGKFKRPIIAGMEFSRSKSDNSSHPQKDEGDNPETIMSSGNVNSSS

[12] = LGR2 antagonists, dose response, cell-based, HEK293, CRE-luciferase reporter, cherry pick, set 2 (AID 743343); format: functional;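 further: transfected cells were stimulated with diluted bursicon conditioned medium after compound addition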
[13] = biological target: T1, Sphingosine 1-phosphate receptor 4; experiment: Fluorescence dose response cell-based high throughput screening assay for antagonists of the Sphingosine 1-Phosphate Receptor 4 (S1P4). [Related pubchem assays: 1524 (Confirmation in triplicates.), 1510 (Primary screen.)]; format: functional
[14] = biological target: G-protein coupled receptor 55 (Homo sapiens, UniProt Q9Y2T6); experiment: GPR55 agonists via beta-arrestin recruitment, primary screen, imaging, U2OS cells, beta-arrestin-GFP redistribution (AID 1961); format: functional
Chain of G-protein coupled receptor 55 (Q9Y2T6 whole entry): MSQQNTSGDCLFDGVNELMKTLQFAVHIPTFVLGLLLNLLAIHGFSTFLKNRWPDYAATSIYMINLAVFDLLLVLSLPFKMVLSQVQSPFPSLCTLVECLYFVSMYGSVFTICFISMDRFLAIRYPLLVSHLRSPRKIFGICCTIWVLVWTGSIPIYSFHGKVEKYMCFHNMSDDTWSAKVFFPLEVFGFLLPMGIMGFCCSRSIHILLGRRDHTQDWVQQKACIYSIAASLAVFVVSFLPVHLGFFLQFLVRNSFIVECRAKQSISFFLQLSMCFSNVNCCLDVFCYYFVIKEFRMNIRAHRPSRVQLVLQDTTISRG

[15] = Luminescence Cell-Based Dose Response HTS to Identify Activators of Luciferase Translation or Activity in H4 […] Cells. [Related pubchem assays: 1829 (Project Summary), 1814 (Primary HTS)]; format: functional
[16] = HepG2 cell cytotoxicity, dose response, cytotoxicity control, plate reader, cherry-pick, antagonist series (AID 743416); format: functional, cell-based
[17] = biological target: DNA dC->dU-editing enzyme APOBEC-3G (Homo sapiens, UniProt Q9HC16); experiment: Dose Response confirmation of small molecule APOBEC3G DNA Deaminase Inhibitors via a fluorescence-based single-stranded DNA deaminase assay. [Related pubchem assays (depositor defined):AID493012, AID493028]; format: functional
Chain of DNA dC->dU-editing enzyme APOBEC-3G (Q9HC16 whole entry): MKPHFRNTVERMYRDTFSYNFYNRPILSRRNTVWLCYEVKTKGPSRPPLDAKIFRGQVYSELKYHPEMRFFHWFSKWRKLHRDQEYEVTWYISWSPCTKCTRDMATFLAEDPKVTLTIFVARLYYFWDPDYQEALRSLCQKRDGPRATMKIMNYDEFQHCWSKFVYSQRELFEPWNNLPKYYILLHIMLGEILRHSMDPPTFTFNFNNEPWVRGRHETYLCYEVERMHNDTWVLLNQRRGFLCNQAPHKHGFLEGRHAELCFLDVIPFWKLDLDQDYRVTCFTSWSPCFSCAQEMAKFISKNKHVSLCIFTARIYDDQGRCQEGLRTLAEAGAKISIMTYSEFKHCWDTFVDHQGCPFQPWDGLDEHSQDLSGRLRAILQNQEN

[18] = biological target: DNA dC->dU-editing enzyme APOBEC-3A (Homo sapiens, UniProt P31941); experiment: APOBEC3A DNA deaminase inhibitors, dose response, biochemical (AID 504722); format: functional
Chain of DNA dC->dU-editing enzyme APOBEC-3A (P31941 whole entry): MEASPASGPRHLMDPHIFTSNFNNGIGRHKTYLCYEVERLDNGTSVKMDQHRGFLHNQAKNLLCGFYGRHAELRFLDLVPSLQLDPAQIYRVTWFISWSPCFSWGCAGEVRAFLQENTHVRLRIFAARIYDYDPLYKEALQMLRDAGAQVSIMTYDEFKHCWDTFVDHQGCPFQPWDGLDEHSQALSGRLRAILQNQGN

[19] = biological target: Alkaline phosphatase, placental type (Homo sapiens, UniProt P05187); experiment: PLAP enzyme inhibitors, confirmation, biochemical, luminescence (AID 1512); format: functional
Chain of Alkaline phosphatase, placental type (P05187 whole entry): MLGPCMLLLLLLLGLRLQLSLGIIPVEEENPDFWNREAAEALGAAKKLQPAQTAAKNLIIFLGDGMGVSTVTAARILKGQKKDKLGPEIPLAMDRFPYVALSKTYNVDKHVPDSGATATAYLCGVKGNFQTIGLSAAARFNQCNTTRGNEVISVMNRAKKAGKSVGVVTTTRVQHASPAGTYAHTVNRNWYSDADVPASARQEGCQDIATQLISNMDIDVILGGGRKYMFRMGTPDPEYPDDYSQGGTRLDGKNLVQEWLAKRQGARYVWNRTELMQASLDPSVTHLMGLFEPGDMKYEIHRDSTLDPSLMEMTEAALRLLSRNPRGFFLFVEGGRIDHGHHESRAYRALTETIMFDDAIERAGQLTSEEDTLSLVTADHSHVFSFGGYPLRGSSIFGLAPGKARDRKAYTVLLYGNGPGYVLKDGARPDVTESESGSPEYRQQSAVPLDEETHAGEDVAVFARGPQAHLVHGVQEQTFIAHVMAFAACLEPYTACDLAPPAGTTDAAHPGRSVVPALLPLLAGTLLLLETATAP

[20] = biological target: T2, Alkaline phosphatase, tissue-nonspecific isozyme (Homo sapiens, UniProt P05186); experiment: human TNAP enzyme inhibitors, SAR follow-up, biochemical, luminescent, dose response (AID 1056)
T2 sequence (P05186 whole entry): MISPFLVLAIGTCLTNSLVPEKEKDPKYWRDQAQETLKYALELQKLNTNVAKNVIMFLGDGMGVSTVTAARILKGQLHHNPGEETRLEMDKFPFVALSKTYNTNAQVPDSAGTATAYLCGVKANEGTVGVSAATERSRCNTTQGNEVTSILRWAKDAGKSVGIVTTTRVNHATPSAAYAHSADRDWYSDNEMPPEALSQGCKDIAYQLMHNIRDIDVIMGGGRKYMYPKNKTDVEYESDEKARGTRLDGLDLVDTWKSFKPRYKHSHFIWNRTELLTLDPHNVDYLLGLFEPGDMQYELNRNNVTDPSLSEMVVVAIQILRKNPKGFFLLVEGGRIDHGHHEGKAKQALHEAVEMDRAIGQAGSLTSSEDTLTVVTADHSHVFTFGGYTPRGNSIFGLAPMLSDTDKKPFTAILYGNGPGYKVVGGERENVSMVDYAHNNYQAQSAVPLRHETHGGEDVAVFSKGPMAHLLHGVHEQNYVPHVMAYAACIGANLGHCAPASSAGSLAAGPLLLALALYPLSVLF

[21] = biological target: Glyceraldehyde-3-phosphate dehydrogenase (Homo sapiens, UniProt P04406)
Chain of Glyceraldehyde-3-phosphate dehydrogenase (P04406 whole entry): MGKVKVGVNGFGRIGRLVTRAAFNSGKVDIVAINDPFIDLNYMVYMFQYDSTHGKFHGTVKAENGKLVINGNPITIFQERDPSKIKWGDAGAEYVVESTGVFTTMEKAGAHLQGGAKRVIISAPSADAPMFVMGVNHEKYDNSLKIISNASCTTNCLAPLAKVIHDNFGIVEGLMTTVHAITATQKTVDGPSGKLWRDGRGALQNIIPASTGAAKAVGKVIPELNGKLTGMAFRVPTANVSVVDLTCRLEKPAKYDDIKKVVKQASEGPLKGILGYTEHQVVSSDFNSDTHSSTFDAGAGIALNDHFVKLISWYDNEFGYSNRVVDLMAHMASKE

Coagulation factor XII = biological target: T3, Coagulation factor XII (Homo sapiens, UniProt P00748); experiment: FXIIa inhibitor potency, concentration-response, biochemical (AID 716); format: functional
T3 sequence (P00748 whole entry): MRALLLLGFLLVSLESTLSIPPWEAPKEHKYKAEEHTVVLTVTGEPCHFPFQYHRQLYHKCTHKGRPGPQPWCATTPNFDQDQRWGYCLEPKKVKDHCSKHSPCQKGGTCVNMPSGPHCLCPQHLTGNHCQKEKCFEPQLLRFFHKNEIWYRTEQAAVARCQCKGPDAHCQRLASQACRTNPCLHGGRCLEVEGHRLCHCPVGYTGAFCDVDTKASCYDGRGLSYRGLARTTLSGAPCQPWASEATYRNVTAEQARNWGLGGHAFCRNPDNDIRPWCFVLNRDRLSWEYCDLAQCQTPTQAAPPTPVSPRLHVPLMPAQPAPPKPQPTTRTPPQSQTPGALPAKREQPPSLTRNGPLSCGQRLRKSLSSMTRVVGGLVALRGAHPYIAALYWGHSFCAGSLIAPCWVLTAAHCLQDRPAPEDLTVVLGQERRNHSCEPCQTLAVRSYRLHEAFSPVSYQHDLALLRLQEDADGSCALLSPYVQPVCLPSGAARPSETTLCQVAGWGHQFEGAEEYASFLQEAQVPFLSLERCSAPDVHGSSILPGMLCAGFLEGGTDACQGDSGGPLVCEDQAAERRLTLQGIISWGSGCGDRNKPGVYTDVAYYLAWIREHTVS

Hexokinase = Hexokinase (Trypanosoma brucei, UniProt Q38C41); experiment: Confirmation assay for inhibitors of Trypanosoma brucei hexokinase 1-Analogue-first series. [Related pubchem assays (depositor defined):AID1430, AID1632, AID2516, AID2560, AID2579, AID2600, AID449725, AID492951]; format: functional
Chain of Hexokinase (Q38C41 whole entry): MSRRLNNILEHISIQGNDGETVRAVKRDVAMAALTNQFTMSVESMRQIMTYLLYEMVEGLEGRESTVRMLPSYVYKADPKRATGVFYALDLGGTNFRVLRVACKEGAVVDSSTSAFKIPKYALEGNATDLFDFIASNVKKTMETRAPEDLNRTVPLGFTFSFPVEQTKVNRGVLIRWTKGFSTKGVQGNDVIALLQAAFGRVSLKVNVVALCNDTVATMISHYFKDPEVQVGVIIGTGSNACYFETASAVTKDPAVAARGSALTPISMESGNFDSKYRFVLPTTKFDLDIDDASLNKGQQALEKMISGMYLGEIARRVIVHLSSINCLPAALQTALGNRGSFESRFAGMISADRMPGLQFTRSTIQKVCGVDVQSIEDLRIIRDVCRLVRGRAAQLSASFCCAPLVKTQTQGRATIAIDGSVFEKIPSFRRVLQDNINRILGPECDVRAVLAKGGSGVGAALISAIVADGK

O=C(NCc1cccnc1)/C(=C\c1ccc(-c2ccc(Cl)c(Cl)c2)o1)S(=O)(=O)c1ccccc1
EC50 [1]: 2.39 µM (active) | IC50 (Beta Lactamase): 26.7 µM (inactive) | EC50 (H4): > 120 µM (not active) | AC50 [2]: 6.6 µM (active) | EC50 [3]: 2.92 µM (active) | AC50 [4]: 7.86 µM (active) | AC50 (Paired box protein Pax-8): 4.66 µM (active) | AC50 (INS1): 3.63 µM (active) | AC50 [5]: 8.51 µM (active) | IC50 [6]: 4.08 µM (active) | IC50 [7]: 4.34 µM (active) | AC50 [8]: 3.52 µM (active) | IC50 [9]: > 50 µM (not active) | EC50 [10]: > 120 µM (not active) | IC50 [11]: 8.81 µM (active) | AC50 [12]: 8.45 µM (active) | IC50 [13]: 965 nM (active) | EC50 [14]: 1.61 µM (active) | EC50 [15]: > 120 µM (not active) | AC50 [16]: 7.96 µM (active)

Cn1c(S)nnc1-c1ccc(C(C)(C)C)cc1
IC50 [17]: 4.79 µM (active) | IC50 [18]: > 100 µM (inactive)

COc1cccc(Cc2nc(N)nn2-c2ccccc2)c1
IC50 [19]: > 100 µM (inactive) | IC50 [20]: > 100 µM (inactive) | IC50 [21]: > 100 µM (not active)

CC(C)(C)NC(=O)CN(C(=O)C1CSC(=O)C1)c1ccc2c(c1)OCCO2 (configuration not stated)
IC50 (Coagulation factor XII): > 50 µM (inactive)

CCc1ccc(C(=O)Nc2cc(Br)ccc2C(=O)O)cc1
IC50 (Hexokinase): 5.45 µM (active)

From ChEMBL document CHEMBL1201862, “PubChem BioAssay data set” (2004)
